Tests used:
Assay type in all cases: cell-based
SNB-19 = assay: NCI-60 cell line panel: SNB-19; conditions: CNS Cancer; for TGI: total growth inhibition; for IC50: Homo sapiens
Protocol: (§1) It was carried out at the NCI, Bethesda, MD, USA, utilizing their standard protocol.

CCRF-CEM = assay: NCI-60 cell line panel: CCRF-CEM; conditions: Leukemia; for IC50: Homo sapiens; for TGI: total growth inhibition
Protocol: as §1

MCF7 = assay: NCI-60 cell line panel: MCF7; conditions: Breast Cancer; for TGI: total growth inhibition; for IC50: Homo sapiens
Protocol: as §1

NCI-H226 = assay: NCI-60 cell line panel: NCI-H226; conditions: Non-Small Cell Lung Cancer; for IC50: Homo sapiens; for TGI: total growth inhibition
Protocol: as §1

SK-MEL-28 = assay: NCI-60 cell line panel: SK-MEL-28; conditions: Melanoma; for IC50: Homo sapiens; for TGI: total growth inhibition
Protocol: as §1

HCT-15 = assay: NCI-60 cell line panel: HCT-15; conditions: Colon Cancer; for TGI: total growth inhibition; for IC50: Homo sapiens
Protocol: as §1

HL-60(TB) = assay: NCI-60 cell line panel: HL-60(TB); design: TGI: unit not given here; conditions: Leukemia; for IC50: Homo sapiens; for TGI: total growth inhibition
Protocol: as §1

OVCAR-5 = assay: NCI-60 cell line panel: OVCAR-5; conditions: Ovarian Cancer; for IC50: Homo sapiens; for TGI: total growth inhibition
Protocol: as §1

HS 578T = assay: NCI-60 cell line panel: HS 578T; conditions: for TGI: Breast Cancer, HS 578T, total growth inhibition; for IC50: Homo sapiens, Hs-578T
Protocol: as §1

ACHN = assay: NCI-60 cell line panel: ACHN; conditions: Renal Cancer; for IC50: Homo sapiens; for TGI: total growth inhibition
Protocol: as §1

HT29 = assay: NCI-60 cell line panel: HT29; conditions: for TGI: Colon Cancer, total growth inhibition; for IC50: Homo sapiens, HT-29, Colon Cancer
Protocol: as §1

BT-549 = assay: NCI-60 cell line panel: BT-549; conditions: Breast Cancer; for TGI: total growth inhibition; for IC50: Homo sapiens
Protocol: as §1

COLO 205 = assay: NCI-60 cell line panel: COLO 205; design: TGI: unit not given here; conditions: Colon Cancer; for TGI: total growth inhibition; for IC50: Homo sapiens
Protocol: as §1

HCC-2998 = assay: NCI-60 cell line panel: HCC-2998; conditions: Colon Cancer; for TGI: total growth inhibition; for IC50: Homo sapiens
Protocol: as §1

SR = assay: NCI-60 cell line panel: SR; conditions: Leukemia; for IC50: Homo sapiens; for TGI: total growth inhibition
Protocol: as §1

KM12 = assay: NCI-60 cell line panel: KM12; conditions: Colon Cancer; for TGI: total growth inhibition; for IC50: Homo sapiens
Protocol: as §1

SK-MEL-5 = assay: NCI-60 cell line panel: SK-MEL-5; conditions: Melanoma; for IC50: Homo sapiens; for TGI: total growth inhibition
Protocol: as §1

OVCAR-8 = assay: NCI-60 cell line panel: OVCAR-8; conditions: Ovarian Cancer; for IC50: Homo sapiens; for TGI: total growth inhibition, in µM (unit assumed)
Protocol: as §1

MDA-MB-231/ATCC = assay: NCI-60 cell line panel: MDA-MB-231/ATCC; conditions: Breast Cancer; for TGI: total growth inhibition; for IC50: Homo sapiens
Protocol: as §1

A498 = assay: NCI-60 cell line panel: A498; conditions: Renal Cancer; for IC50: Homo sapiens; for TGI: total growth inhibition
Protocol: as §1

NCI/ADR-RES = assay: NCI-60 cell line panel: NCI/ADR-RES; design: TGI: unit not given here; conditions: Ovarian Cancer; for IC50: Homo sapiens; for TGI: total growth inhibition
Protocol: as §1

U251 = assay: NCI-60 cell line panel: U251; design: TGI: unit not given here; conditions: for TGI: CNS Cancer, total growth inhibition; for IC50: Homo sapiens, U-251, CNS Cancer
Protocol: as §1

SNB-75 = assay: NCI-60 cell line panel: SNB-75; design: TGI: unit not given here; conditions: CNS Cancer; for TGI: total growth inhibition; for IC50: Homo sapiens
Protocol: as §1

EKVX = assay: NCI-60 cell line panel: EKVX; conditions: Non-Small Cell Lung Cancer; for IC50: Homo sapiens
Protocol: as §1

SK-MEL-2 = assay: NCI-60 cell line panel: SK-MEL-2; design: TGI: unit not given here; conditions: Melanoma; for IC50: Homo sapiens; for TGI: total growth inhibition
Protocol: as §1

Hep3B = assay: MTT assay, Hep3B HCC cell line; conditions: Homo sapiens, 48 h, mean of triplicate assays ± SEM
Protocol: Two HCC cell lines (Hep3B and HepG2) were used for screening the antiproliferative activity of the synthesized compounds. The cell lines were obtained from the European Collection of Cell Cultures (ECACC, UK) and maintained in Dulbecco's Modified Eagle Medium (DMEM: Sigma-Aldrich) supplemented with 10% fetal bovine serum (FBS) and 1% penicillin/streptomycin and incubated at 37° C. in a 5% CO2 air atmosphere. In addition, WI-38 normal cell line was used to investigate the safety of these compounds.
MTT assay was conducted to calculate the IC50 of the compounds following the reported procedure . Briefly, the cells were seeded in 96-well tissue culture plates with a density of 5×10^4 cells/well and incubated overnight at 37° C. in a 5% CO2 air atmosphere. […] DMSO was used as a negative control. After 48 h, the media were aspirated, and replaced with media containing 0.5 mg/mL of MTT tetrazolium dye (Sigma-Aldrich) for 2 h at 37° C. Finally, the media were removed and 200 μL of DMSO was added to solubilize the formazan crystals. Absorbance was then measured at 570 nm using Varioskan Flash multimode plate reader (Thermo Scientific, Massachusetts, USA).

SN12C = assay: NCI-60 cell line panel: SN12C; conditions: Renal Cancer; for IC50: Homo sapiens; for TGI: total growth inhibition
Protocol: as §1

RXF 393 = assay: NCI-60 cell line panel: RXF 393; conditions: Renal Cancer; for IC50: Homo sapiens; for TGI: total growth inhibition
Protocol: as §1

UACC-62 = assay: NCI-60 cell line panel: UACC-62; conditions: Melanoma; for IC50: Homo sapiens; for TGI: total growth inhibition
Protocol: as §1

786-0 = assay: NCI-60 cell line panel: 786-0; conditions: Renal Cancer; for IC50: Homo sapiens; for TGI: total growth inhibition
Protocol: as §1

MALME-3M = assay: NCI-60 cell line panel: MALME-3M; conditions: Melanoma; for IC50: Homo sapiens; for TGI: total growth inhibition, in µM (unit assumed)
Protocol: as §1

OVCAR-3 = assay: NCI-60 cell line panel: OVCAR-3; conditions: Ovarian Cancer; for IC50: Homo sapiens; for TGI: total growth inhibition
Protocol: as §1

NCI-H23 = assay: NCI-60 cell line panel: NCI-H23; conditions: Non-Small Cell Lung Cancer
Protocol: as §1

CNC(=O)c1cc(-c2ccc(NC(=O)Nc3ccc(N4CCN(C)CC4)c(C(F)(F)F)c3)cc2)nc2cccnc12 [Compound 13b, N-Methyl-2-(4-(3-(4-(4-methylpiperazin-1-yl)-3-(trifluoromethyl)phenyl)ureido)phenyl)-1,5-naphthyridine-4-carboxamide]
TGI (SNB-19): 33.2 µM
IC50 (SNB-19): 16.8 µM
IC50 (CCRF-CEM): 3.16 µM
TGI (CCRF-CEM): 74.1 µM
TGI (MCF7): 3.45 µM
IC50 (MCF7): 1.67 µM
IC50 (NCI-H226): 18 µM
TGI (NCI-H226): 39.7 µM
IC50 (SK-MEL-28): 1.67 µM
TGI (SK-MEL-28): 3.11 µM
TGI (HCT-15): 4.33 µM
IC50 (HCT-15): 2.07 µM
IC50 (HL-60(TB)): 16.2 µM
TGI (HL-60(TB)): 38.7
IC50 (OVCAR-5): 15.6 µM
TGI (OVCAR-5): 29 µM
TGI (HS 578T): 38.9 µM
IC50 (HS 578T): 15 µM
IC50 (ACHN): 15.5 µM
TGI (ACHN): 28.9 µM
TGI (HT29): 4.19 µM
IC50 (HT29): 1.92 µM
TGI (BT-549): 35.3 µM
IC50 (BT-549): 16.5 µM
TGI (COLO 205): 32.8
IC50 (COLO 205): 16.8 µM
TGI (HCC-2998): 34.6 µM
IC50 (HCC-2998): 18 µM
IC50 (SR): 9.97 µM
TGI (SR): 44.6 µM
TGI (KM12): 43.3 µM
IC50 (KM12): 17.4 µM
IC50 (SK-MEL-5): 17.5 µM
TGI (SK-MEL-5): 31.7 µM
IC50 (OVCAR-8): 17.4 µM
TGI (OVCAR-8): 35.4
TGI (MDA-MB-231/ATCC): 38.1 µM
IC50 (MDA-MB-231/ATCC): 17.5 µM
IC50 (A498): ≥ 100 µM
TGI (A498): 100 µM
IC50 (NCI/ADR-RES): 14.2 µM
TGI (NCI/ADR-RES): 45.4
TGI (U251): 14.7
IC50 (U251): 3.43 µM
TGI (SNB-75): 28.4
IC50 (SNB-75): 14.9 µM
IC50 (EKVX): 17.9 µM
TGI (EKVX; total growth inhibition, in µM (unit assumed)): 33.9
IC50 (SK-MEL-2): ≥ 100 µM
TGI (SK-MEL-2): 100
IC50 (Hep3B): 2.32 ± 0.02 µM
IC50 (SN12C): 16.7 µM
TGI (SN12C): 34.7 µM
IC50 (RXF 393): 3.38 µM
TGI (RXF 393): 15 µM
IC50 (UACC-62): 18.4 µM
TGI (UACC-62): 33.9 µM
IC50 (786-0): 1.81 µM
TGI (786-0): 3.52 µM
IC50 (MALME-3M): 1.68 µM
TGI (MALME-3M): 3.21
IC50 (OVCAR-3): 9.59 µM
TGI (OVCAR-3): 25.8 µM

CCN1CCN(c2ccc(NC(=O)Nc3ccc(-c4cc(C(=O)NC)c5ncccc5n4)cc3)cc2C(F)(F)F)CC1 [Compound 13c, 2-(4-(3-(4-(4-Ethylpiperazin-1-yl)-3-(trifluoromethyl)phenyl)ureido)phenyl)-N-methyl-1,5-naphthyridine-4-carboxamide]
TGI (SNB-19): 5.48 µM
IC50 (SNB-19): 2.97 µM
IC50 (CCRF-CEM): 0.46 µM
TGI (CCRF-CEM): 1.27 µM
TGI (MCF7): 0.61 µM
IC50 (MCF7): 0.29 µM
IC50 (NCI-H226): 2.7 µM
TGI (NCI-H226): 6.36 µM
IC50 (SK-MEL-28): 0.32 µM
TGI (SK-MEL-28): 0.58 µM
TGI (HCT-15): 0.7 µM
IC50 (HCT-15): 0.33 µM
IC50 (HL-60(TB)): 3.42 µM
TGI (HL-60(TB)): >18.0
IC50 (OVCAR-5): 2.82 µM
TGI (OVCAR-5): 5.23 µM
TGI (HS 578T): 6.88 µM
IC50 (HS 578T): 2.39 µM
IC50 (ACHN): 2.39 µM
TGI (ACHN): 4.73 µM
TGI (HT29): 2.11 µM
IC50 (HT29): 0.53 µM
TGI (BT-549): 5.67 µM
IC50 (BT-549): 2.78 µM
TGI (COLO 205): 14.20
IC50 (COLO 205): 4.15 µM
TGI (HCC-2998): 5.31 µM
IC50 (HCC-2998): 2.83 µM
IC50 (NCI-H23; Homo sapiens): 2.68 µM
TGI (NCI-H23; total growth inhibition): 5.68 µM
IC50 (SR): 0.67 µM
TGI (SR): > 18 µM
TGI (KM12): 6.65 µM
IC50 (KM12): 3.25 µM
IC50 (SK-MEL-5): 2.05 µM
TGI (SK-MEL-5): 4.26 µM
IC50 (OVCAR-8): 3.85 µM
TGI (OVCAR-8): 10.50
TGI (MDA-MB-231/ATCC): 5.25 µM
IC50 (MDA-MB-231/ATCC): 2.78 µM
IC50 (A498): 2.74 µM
TGI (A498): 5.31 µM
IC50 (NCI/ADR-RES): 1.78 µM
TGI (NCI/ADR-RES): 8.09
TGI (U251): 5.53
IC50 (U251): 2.69 µM
TGI (SNB-75): 3.82
IC50 (SNB-75): 0.84 µM
IC50 (EKVX): 2.94 µM
IC50 (SK-MEL-2): 9.87 µM
TGI (SK-MEL-2): >18.0
IC50 (SN12C): 2.77 µM
TGI (SN12C): 5.3 µM
IC50 (RXF 393): 0.49 µM
TGI (RXF 393): 1.66 µM
IC50 (UACC-62): 3.06 µM
TGI (UACC-62): 5.66 µM
IC50 (786-0): 0.3 µM
TGI (786-0): 0.58 µM
IC50 (MALME-3M): 0.29 µM
TGI (MALME-3M): 0.53
IC50 (OVCAR-3): 2.54 µM
TGI (OVCAR-3): 5.06 µM
